Bounds are passed on as bounds.

`CCOC(=O)CCCCCSc1nnc(S)s1`: the melting point (as a rule, the temperature of the solid-liquid transition) lay within 79 to 80 °C.
In turn, `COc1ccc(-c2cc(=O)c3ccc(OCCCBr)cc3o2)cc1OC` returned a melting point of 148 to 149 °C.
Regarding `Cc1nc2ncnn2c(Cl)c1C1CCCC1`, the melting point was 87 °C.
`c1ccc(-c2nn3c(c2-c2cccc4nsnc24)CCC3)nc1` came in with a melting point of 140 to 142 °C.
The compound `CCCCCCCCCCNC(=O)c1ccc(C(=O)NCCCCCCCCCC)c(N(CC(=O)O)CC(=O)O)c1` gave a melting point of 135 to 136 °C.
For the compound `O=C(Nc1cccc(S(=O)(=O)N2CCOCC2)c1)c1cnn2c(C(F)F)cc(-c3ccc(Cl)cc3)nc12`, the melting point stood at 253 °C.
Regarding `COC(=O)c1cc(S(=O)(=O)c2ccc(C)cc2)cc(OC)c1OC`, the melting point came out at 114 °C.
The compound `CC(=O)N(C)c1cc(Br)cc(S(=O)(=O)c2ccccc2)c1` came in with a melting point of 147 to 148 °C.
Regarding `C#Cc1ccc2c(c1)C(c1ccccn1)=NC(C)c1c(C(=O)OCC)ncn1-2` (centres undefined), the melting point lay within 235 to 237 °C.
For `O=c1cc(-c2ccc(OCCOCCOc3ccc(-c4cc(=O)c5c(O)cc(O)cc5o4)cc3)cc2)oc2cc(O)cc(O)c12` the value was 268 to 270 °C; for `CCC(CC)c1ccc(Cl)c2nc(Cl)n(C)c12`, 94 to 95 °C.
Compound `CCCN(C)CCCCC1CCN(S(=O)(=O)c2ccc(C(F)(F)F)cc2)CC1` yielded a melting point of 73 to 74.8 °C.
Consider `CCC(C(=O)O)c1ccc(C(=O)c2ccc(Cl)cc2)n1C` (centres undefined), for which the melting point lay within 108 to 112 °C.
`O=C1CCCc2nc(N3CCN(Cc4ccccc4)CC3)ncc2N1` registered a melting point of 211 °C.
For `CC(C)(C)c1cc(OCCCCC(=O)O)cc(C(C)(C)C)c1` the value was 113 to 115 °C.
Regarding `CCOC(=O)c1oc2cccc(COC)c2c1C`, the melting point lay in the range of 45 to 47 °C.
The value for `O=c1cc(COC2CCCCO2)occ1OCc1ccc(CBr)cc1` (centres undefined) was 83.5 °C; that for `CC(=O)N1CC(=O)N/C(=C\c2ncoc2C(C)(C)C)C1=O` was 145 to 147 °C.
`NC(=O)N[C@@H]1CCC[C@@H](O)c2sccc21` (relative stereo): the melting point was in the range of 169 to 172 °C.
For `CC(=O)OC1CSC(Oc2cccc(-c3ccc(F)nc3)c2)C(OC(C)=O)C1OC(C)=O` (centres undefined) the value was 115 °C; for `COc1ccc(Cn2nnc(-c3cccc(C(=O)NCc4ccc(C(=O)O)cc4)c3)n2)cc1`, 202 to 205 °C.
For `COC(=O)CCc1ncc2c(c1C(=O)OC)CCO2` the value was 80 to 81 °C; for `COc1cc(OC)c2c(C)c(CCCl)c(=O)oc2c1`, 129 to 130 °C; for `C[C@@H]1S[C@@H](C(=O)Nc2ccc(CN3C(=O)CSC3=O)cc2)Cc2cc3c(cc2C1=O)OCO3`, 232 to 235 °C.
Consider `Cc1cc(C)c(N2c3ccccc3Sc3cc(C=O)ccc32)c(C)c1`, for which the melting point lay within 136 to 140 °C.
The compound `Cc1cc(S(N)(=O)=O)ccc1NC(=O)CNc1ccccc1` registered a melting point of 195 to 196 °C.
For the compound `O=C1CCC(=O)N1CCSc1ccc(O)cc1`, the melting point was 114 to 122 °C.
With `CC(C)n1c(=O)nc(-c2ccc3c(c2)CCC3)c2cc3c(cc21)OCO3`, the melting point lay within 73 to 75 °C.
The value for `CCCCc1cc(C(=O)OC)c(N)s1` was 62 to 63 °C; that for `CC(=O)NC1CCc2c(n(C)c3ccccc23)C1` (centres undefined) was 171 to 172 °C.
For `N=C(NC(=O)c1ccc2ccccc2c1)c1ccc(N2CC(CN3CCN(CCC(=O)O)CC3)OC2=O)cc1` (centres undefined) the value was 80 to 83 °C; for `COc1ccc(-c2nn(CC3CCCC3)c(=O)cc2-c2ccncc2)cc1`, 119 to 120 °C.
In turn, `COC(=O)C(Cc1ccc([N+](=O)[O-])cc1)NC(=O)NCc1cccc(Oc2ccccc2)c1` (single isomer, unassigned; (+)) yielded a melting point of 112 to 114 °C.
`Nc1ccccc1C(=O)NCCCCn1ccnc1`: the melting point fell in the range of 91 to 93 °C.
For `O=C1CCCc2nc3cc(Cl)ccc3c(NCc3ccccc3)c21` the value was 141 to 143 °C; for `N#Cc1cc(Cl)c(F)cc1F`, 48 to 50 °C.
The compound `O=C1NC(=O)c2c1c(-c1ccccc1)cc1c2c2cc(O)ccc2n1CCCN1CCOCC1` registered a melting point of 252 to 255 °C.
`COc1cc2ncnc(N3CCC(CCBr)CC3)c2cc1OC` had a melting point of 191 °C.
The compound `Cn1ncc2c1-c1c(Oc3ccc4c(c3)OCO4)sc(C(=O)NCc3ccncc3)c1CC2` showed a melting point of 202 to 204 °C.
For `O=C(O)C1C2C=CC(C2)C1C(F)(F)F` (centres undefined), the melting point lay in the range of 85 to 90 °C.
In turn, `CCOC(=O)CCCc1csc(NC(=O)NCc2ccccc2)n1` came in with a melting point of 157 °C.
`COc1ccc2c(c1Br)C(=O)C(=O)N2` gave a melting point of 250 to 251 °C.
`CC(=O)OCC=Cc1ccccc1S(N)(=O)=O`: the melting point fell in the range of 94 to 95 °C.
On to `Cc1oc(-c2ccco2)nc1COc1ccc(CCCn2ccnc2)cc1`, for which the melting point was in the range of 89 to 90 °C.
As to `COC(=O)c1cc(C(=O)OC)n(-c2ccc(Cl)cc2C(=O)c2ccccc2)n1`, the melting point lay within 118 to 120 °C.
The value for `Cc1ccc(C(=O)C2=C(O)C(=O)N(c3ccc(C)nn3)C2c2ccc(N3CCN(CCN(C)C)CC3)cc2)cc1` (centres undefined) was 185 °C.
As for `CCCn1c(COCC)nc2c(N)nc3cc(OCc4ccccc4)ccc3c21`, the melting point is 188 to 189 °C.
For the compound `CCOC(=NC(=O)c1ccc(OC)cc1)N1Cc2ccccc2-c2ccccc2C1`, the melting point fell in the range of 71 to 78 °C.
Consider `C#Cc1ccc2ccc(C#C)cc2c1`, for which the melting point lay in the range of 124 to 126 °C.
In turn, `O=C(Nc1cc(C(=O)O)cc(C(=O)O)c1)Oc1ccc([N+](=O)[O-])cc1` showed a melting point of over 300 °C.
`CC(c1c[nH]cn1)C(N)CO` (centres undefined) displayed a melting point of 168 °C.
For `CN(C)CCC1CN(C)C(=S)c2cc([N+](=O)[O-])ccc2O1` (centres undefined) the value was 104 to 109 °C; for `CCCCCNC(=S)NC(=Nc1ccccc1)c1ccccc1`, 157 to 158 °C.
Take `CC(=O)N(C)c1cccc(C2=CCNc3c(C#N)cnn32)c1`: the melting point lay in the range of 114 to 120 °C.
The value for `COc1ccc(C(=O)c2ccc3cc(OC)ccc3c2)c(F)c1` was 120 to 122 °C; that for `CCCCN1C(=O)c2cnc(-c3ccccc3)nc2Nc2ccccc21` was 140 to 141 °C; that for `COC(=O)CNC(=O)OC1c2ccccc2C(=O)N1c1ccc2ccc(Cl)nc2n1` (centres undefined) was 208 to 210 °C.
With `COc1cc(-c2ccccc2)c(OC)cc1Nc1ncnc2cc(OC)c(OC)cc12`, the melting point fell in the range of 226 to 229 °C.
As for `CCCCCCCCCCCCCCOc1ccc(C(=O)NCCc2ccccn2)cc1`, the melting point lay in the range of 80 to 82 °C.
Consider `O=C1c2ccc3cccnc3c2N=CC1S(=O)(=O)CC(F)(F)F` (centres undefined), for which the melting point was in the range of 272 to 274 °C.
`CN1Cc2c([N+](=O)[O-])ncn2-c2ccccc2C1=O` gave a melting point of 227 to 229 °C.
With `CCc1ncnc(NC2CCC(c3ccc(Oc4ccc(C(F)(F)F)cn4)cc3)CC2)c1Cl` (centres undefined), the melting point was 114 to 116 °C.
For the compound `CCCCc1ccc(C(=O)O)c(=O)[nH]1`, the melting point came to 149 °C.
Consider `O=C(O)CCCCCOc1ccc2sc(-c3ccccn3)nc(=O)c2c1`, for which the melting point lay in the range of 205 to 206 °C.

For the origin of these results see a melting point compilation (Tetko et al.; mined from patent text by program, amines drawn as free bases though some values may be those of a salt).
